# Experimental data reported in paper PMC4661090 (FEBS letters, 2015).
# Assays:
# [1] = target: Tsr (thiostrepton resistance methyltransferase) (Streptomyces azureus, UniProt P18644); experiment: isothermal titration calorimetry, single-set-of-sites fit; format: binding
# [2] = target: Tsr (thiostrepton resistance methyltransferase) (Streptomyces azureus, UniProt P18644, N129A); experiment: biochemical; format: binding
# [3] = target: Tsr (thiostrepton resistance methyltransferase) (Streptomyces azureus, UniProt P18644, R135A); experiment: biochemical; format: binding
# [4] = target: Tsr (thiostrepton resistance methyltransferase) (Streptomyces azureus, UniProt P18644, R165A); experiment: biochemical; format: binding
# [5] = target: Tsr (thiostrepton resistance methyltransferase) (Streptomyces azureus, UniProt P18644, R165K); experiment: biochemical
# [6] = target: Tsr (thiostrepton resistance methyltransferase) (Streptomyces azureus, UniProt P18644, N129D); experiment: biochemical
# [7] = target: Tsr (thiostrepton resistance methyltransferase) (Streptomyces azureus, UniProt P18644, R135K); experiment: biochemical
smiles,measurement,setting,value
"Nc1ncnc2c1ncn2[C@@H]1O[C@H](CSCC[C@H](N)C(=O)O)[C@@H](O)[C@H]1O [SAH, S-adenosyl-L-homocysteine]",Kd,[1],24.4 µM
same,Kd,[2],16.4 µM
same,Kd,[3],11 µM
same,Kd,[4],20.5 µM
"C[S+](CC[C@H](N)C(=O)O)C[C@H]1O[C@@H](n2cnc3c(N)ncnc32)[C@H](O)[C@@H]1O (stereo partly drawn) [SAM, S-adenosyl-L-methionine]",Kd,[1],107 µM
same,Kd,[2],493 µM
same,Kd,[3],614 µM
same,Kd,[4],189 µM
same,Kd,[5],97.1 µM
same,Kd,[6],411 µM
same,Kd,[7],142 µM
